Measurements reported in US20240366655A1, “COMBINATION DRUG THERAPIES” (CYBIN IRL LIMITED, priority 2021, published 2024).
Like-named read-outs stand apart in the source and are kept apart here.

How the values were obtained:
[1] = Brain pharmacokinetics and brain to plasma ratio after IV co-administration of DMT and DMT-d10 to male rats (Group 4); type: in vivo, Sprague Dawley rats; conditions: for Cmax / Tmax / half-life / Kp: Sprague Dawley, rat; for Cmax / Tmax / AUC0-inf / AUC(0-t) / half-life: brain; for Cmax / Tmax / AUC0-inf / AUC(0-t): Group 4 IV bolus 1 mg/kg, male rats; for Distribution into brain: after IV co-administration; for half-life / Kp: male, 1 mg/kg; for half-life: Group 4 IV, calculated 0.25 to 1 hr; for Kp: brain / plasma, intravenous, read-out: B/P (AUC0-1), brain to plasma ratio
Description: The pharmacokinetics and bioavailability of N,N-dimethyltryptamine (DMT) and 2-(1H-indol-3-yl)-N,N-bis(methyl-d3)ethan-1-amine-1,1,2,2-d4 (DMT-d10) were investigated in rats following intravenous (bolus), oral gavage (OG), and inhalation after co-dose administration.
Sampling collection. PK samples (0.3 mL) were collected from the jugular vein by venepuncture into tubes containing K2EDTA anticoagulant at the following sampling times: Group 1 (IV) and Group 2 (oral) serial plasma collection at 0.083, 0.25, 0.5, 1, 3, 8 and 24 hr postdose; Group 4 (IV) composite plasma and brain collection at 0.083, 0.25, 0.5 and […]; Group 6 (inhalation) serial plasma collection at 0.333, 0.533, 0.833, 1.333, 3.333, 8.333 and 24.333 after start of inhalation.
Brain samples: After extraction of whole brain from the cranium, brains were rinsed, patted dry, weighed, placed into tubes and frozen on dry ice. Thereafter, they were stored at −70 (10°) C pending analysis.
Bioanalysis. Plasma and brain homogenates were analyzed for DMT and DMT-d10 using an established LC-MS/MS assay.) Pharmacokinetic parameters were determined from the DMT and DMT-d10 plasma and brain concentration-time profiles using commercially available software (Phoenix® WinNonlin®).

[2] = Plasma pharmacokinetics of co-administered DMT and DMT-d10 by intravenous (bolus), oral gavage and inhalation administration to male rats; conditions: for time of peak plasma concentration postdose: after oral administration; for mean residence time (MRT) after inhalation compared to IV administration: inhalation vs IV; for F: calculated from dose normalized AUC0-1 mean values vs Group 4 IV; for bioavailability / Tmax / half-life / AUC(0-t) / AUC0-inf / Cmax / MRT last / AUC0-1/dose / t1/2: plasma
[3] = rats, following intraperitoneal injection; cited from earlier work
[4] = Experiment 6: blood neurotrophic and endocrine biomarkers after DMT+N2O in healthy human participants; conditions: DMT 0.1, 0.2, 0.4 mg/kg
Description: General experimental design. The proposed studies aim to define proof-of-concept synergistic interactions of inhalational DMT fumarate with N2O, or IV DMT fumarate administered as a bolus over 30 seconds. Healthy adult participants will be exposed to either inhalational DMT in 20-25% N2O in oxygen as the carrier gas, or inhalational DMT in oxygen alone as the carrier gas in a blinded manner, or IV DMT while inhaling 20-25% N2O in oxygen, or oxygen.
Pre-study: Baseline measurements of heart rate, body temperature and blood pressure will be made. An IV cannula will be inserted into a forearm vein for blood sampling and to allow administration of DMT as a bolus in the IV condition. Participants will be allowed to relax for 30 min before the drug session. Study session: Participants will receive administration of either 20-25% N2O in oxygen, or oxygen alone, for 10 minutes prior to the administration of a high, medium or low dose of inhalational or IV DMT (0.4, 0.2, 0.1 mg/kg) over the course of 30 sec-1 minute. […]
Baseline blood samples will be drawn 30 minutes before N2O or oxygen administration, and after 8 mins of N2O or oxygen administration for endocrine markers of HPA axis activation: corticotropin, β-endorphin, prolactin, GH and cortisol levels. Further blood samples will be drawn, and vital signs measured 2, 15, 60 and 120 minutes after DMT administration. […]

[5] = target: T1, serotonin 5-HT2A receptor (Mus musculus, UniProt P35363); conditions: 1 mg/kg dose, intraperitoneal, rats and mice; cited from earlier work
T1 construct: endogenous in cells; host or cells: living mice (in vivo behavioural assay); receptor endogenous to the animal

[6] = cited from earlier work
[7] = inhalation, DMT 15.3 mg/kg, DMT-d10 14.7 mg/kg
[8] = male, Sprague Dawley, rat, inhaled
[9] = male, Sprague Dawley, rat, inhaled or intranasal
[10] = male, Sprague Dawley, rat, inhaled or intranasal, AUC0-1, plasma, Group 6 inhalation, DMT 15.3 mg/kg, DMT-d10 14.7 mg/kg
[11] = male, Sprague Dawley, rat, inhaled or intranasal, AUC0-1, plasma, inhalation, DMT 15.3 mg/kg, DMT-d10 14.7 mg/kg (summary table)
[12] = male, Sprague Dawley, rat, inhaled or intranasal, AUC0-t, Group 6 inhalation, DMT 15.3 mg/kg, DMT-d10 14.7 mg/kg
[13] = male, Sprague Dawley, rat, iv, 1 mg/kg
[14] = male, Sprague Dawley, rat, iv, 1 mg/kg, AUC0-1, plasma, 1 mg/kg (summary table)
[15] = male, Sprague Dawley, rat, iv, 1 mg/kg, AUC0-1, plasma, Group 4 IV bolus, 1 mg/kg, male rats
[16] = male, Sprague Dawley, rat, iv, 1 mg/kg, AUC0-t, Group 4 IV bolus, 1 mg/kg, male rats
[17] = male, Sprague Dawley, rat, po, 10 mg/kg
[18] = male, Sprague Dawley, rat, po, 10 mg/kg, AUC0-1, plasma, 10 mg/kg (summary table)
[19] = male, Sprague Dawley, rat, po, 10 mg/kg, AUC0-1, plasma, Group 2 oral gavage (OG), 10 mg/kg, male rats
[20] = male, Sprague Dawley, rat, po, 10 mg/kg, AUC0-t, Group 2 oral gavage (OG), 10 mg/kg, male rats
[21] = inhalation, calculated 0.333 to 3.333 hr (summary table)
[22] = intravenous 1 mg/kg, calculated 0.083 to 1.0 hr (summary table)
[23] = human, IV bolus of DMT (as fumarate salt), 0.05-0.4 mg/kg

T1 sequence (P35363 whole entry): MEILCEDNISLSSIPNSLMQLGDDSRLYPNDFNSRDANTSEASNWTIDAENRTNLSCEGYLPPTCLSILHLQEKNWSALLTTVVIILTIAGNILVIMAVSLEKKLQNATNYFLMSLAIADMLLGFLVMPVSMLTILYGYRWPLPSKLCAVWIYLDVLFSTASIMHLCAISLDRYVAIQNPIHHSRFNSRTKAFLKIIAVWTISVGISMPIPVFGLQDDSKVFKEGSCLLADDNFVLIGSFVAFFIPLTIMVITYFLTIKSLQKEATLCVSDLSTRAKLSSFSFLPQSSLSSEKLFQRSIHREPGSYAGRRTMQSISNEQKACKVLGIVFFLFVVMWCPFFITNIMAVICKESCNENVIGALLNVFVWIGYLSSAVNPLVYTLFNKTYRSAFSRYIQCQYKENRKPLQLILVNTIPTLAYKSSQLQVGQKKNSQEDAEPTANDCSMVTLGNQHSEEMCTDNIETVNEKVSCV

SMILES: [2H]C([2H])([2H])N(C([2H])([2H])[2H])C([2H])([2H])C([2H])([2H])c1c[nH]c2ccccc12 [DMT-d10, 2-(1H-indol-3-yl)-N,N-bis(methyl-d3)ethan-1-amine-1,1,2,2-d4]
- improvement of brain to plasma (B/P) ratio by deuteration ([1]; DMT-d10 vs. DMT, IV): approximately 50%
- Cmax [1]: 1490 ng/g
- Tmax [1]: 5 min
- Distribution into brain [1]: high
- AUC0-inf [1]: 1290 ng·h/g
- AUC(0-t) [1]: 931 ng·h/g
- half-life [1]: 33.9 min
- Kp [1]: 14
- increase of inhalation bioavailability by deuteration ([2]; DMT-d10 vs. DMT): approximately 60%
- time of highest plasma concentration (first time point taken) ([2]; after IV bolus): 0.083 h
- time of highest plasma concentration (first time point taken) ([2]; after inhalation): 0.333 h
- time of peak plasma concentration postdose [2]: 1 h
- mean residence time (MRT) after inhalation compared to IV administration [2]: approximately 2 ×
- F [2, 7]: 24.3%
- bioavailability [2, 8]: 24.3%
- Tmax [2, 9]: 20 min
- half-life [2, 9]: 23.7 min
- AUC(0-t) [2, 10]: 267 ng·h/mL
- AUC(0-t) [2, 11]: 267 ng·h/mL
- AUC(0-t) [2, 12]: 361 ng·h/mL
- AUC0-inf [2, 13]: 92.6 ng·h/mL
- Cmax [2, 13]: 148 ng/mL
- MRT last [2, 13]: 20.9 min
- half-life [2, 13]: 26.5 min
- AUC(0-t) [2, 14]: 74.6 ng·h/mL
- AUC(0-t) [2, 15]: 74.6 ng·h/mL
- AUC(0-t) [2, 16]: 74.6 ng·h/mL
- Cmax [2, 17]: 20.8 ng/mL
- MRT last [2, 17]: 221 min
- Tmax [2, 17]: 60 min
- bioavailability [2, 17]: 1.2%
- AUC(0-t) [2, 18]: 8.78 ng·h/mL
- AUC(0-t) [2, 19]: 8.78 ng·h/mL
- AUC(0-t) [2, 20]: 77.2 ng·h/mL
- F ([2]; oral gavage 10 mg/kg): 1.2%
- Cmax ([2]; Group 4 IV bolus, 1 mg/kg, male rats): 148 ng/mL
- AUC0-1/dose [2, 7]: 18.2
- t1/2 [2, 21]: 23.7 min
- t1/2 [2, 22]: 26.5 min
- AUC0-1/dose ([2]; intravenous, 1 mg/kg): 74.6
- AUC0-1/dose ([2]; oral, 10 mg/kg): 0.878

SMILES: CN(C)CCc1c[nH]c2ccccc12 [DMT, N,N-dimethyltryptamine]
- half-life [3]: 5 to 15 min
- time to be metabolized and cleared from brain, liver, and plasma [3]: ≤ 1 h
- levels of VEGF and BDNF in blood [4]: dose-dependently increased levels
- hallucinogenic effect as measured by head-twitch responses (HTRs) [5]: sub-hallucinogenic
- Cmax [1]: 3430 ng/g
- Tmax [1]: 5 min
- Distribution into brain [1]: high
- AUC0-inf [1]: 1070 ng·h/g
- AUC(0-t) [1]: 1060 ng·h/g
- half-life [1]: 9.3 min
- Kp [1]: 9
- time of highest plasma concentration (first time point taken) ([2]; after IV bolus): 0.083 h
- time of highest plasma concentration (first time point taken) ([2]; after inhalation): 0.333 h
- time of peak plasma concentration postdose [2]: 1 h
- mean residence time (MRT) after inhalation compared to IV administration [2]: approximately 2 ×
- F [2, 7]: 15.3%
- bioavailability [2, 8]: 15.3%
- Tmax [2, 9]: 20 min
- half-life [2, 9]: 19.7 min
- AUC(0-t) [2, 10]: 265 ng·h/mL
- AUC(0-t) [2, 11]: 265 ng·h/mL
- AUC(0-t) [2, 12]: 300 ng·h/mL
- AUC0-inf [2, 13]: 115 ng·h/mL
- Cmax [2, 13]: 314 ng/mL
- MRT last [2, 13]: 13.6 min
- half-life [2, 13]: 10.1 min
- AUC(0-t) [2, 14]: 113 ng·h/mL
- AUC(0-t) [2, 15]: 113 ng·h/mL
- AUC(0-t) [2, 16]: 113 ng·h/mL
- Cmax [2, 17]: 28 ng/mL
- MRT last [2, 17]: 172 min
- Tmax [2, 17]: 60 min
- bioavailability [2, 17]: 1.2%
- AUC(0-t) [2, 18]: 13.7 ng·h/mL
- AUC(0-t) [2, 19]: 13.7 ng·h/mL
- AUC(0-t) [2, 20]: 65 ng·h/mL
- F ([2]; oral gavage 10 mg/kg): 1.2%
- AUC0-1/dose [2, 7]: 17.3
- t1/2 [2, 21]: 19.7 min
- t1/2 [2, 22]: 10.1 min
- AUC0-1/dose ([2]; intravenous, 1 mg/kg): 113
- AUC0-1/dose ([2]; oral, 10 mg/kg): 1.37
- half-life ([6]; administered intravenously): around 15 minutes
- time to peak plasma concentrations ([6]; administered intravenously): approximately 2 minutes
- subjective effects ([6]; human, 0.1 mg/kg IV): not hallucinogenic
- subjective effects ([6]; human, 0.2 and 0.4 mg/kg IV): nearly instantaneous onset of visual hallucinatory phenomena, bodily dissociation, and extreme shifts in mood
- peak of psycho-biological effects after administration [6, 23]: 120 seconds
- time by which psycho-biological effects resolve [6, 23]: ≤ 30 minutes
- duration of effect ([6]; vaporized DMT): less than 30 min
